Where two headings read alike, the source gives them in different places.
Assays:
Experiment in all cases: Post-emergence efficacy, Method A
Assay type in all cases: in vivo
[1] = system: Digitaria sanguinalis (DIGSA); settings: read-out: Control of weed species after post-emergence application, DIGSA
[2] = system: Chenopodium album (CHEAL); settings: read-out: Control of weed species after post-emergence application, CHEAL
[3] = system: Euphorbia heterophylla (EPHHL); settings: 500 g/Ha, 100=total damage to plant, 0=no damage, evaluated after 7 and 14 days, read-out: Control of weed species after post-emergence application, EPHHL
Eleusine indica (ELEIN) = settings: read-out: Control of weed species after post-emergence application, ELEIN
[4] = system: Echinochloa crus-galli (ECHCG); settings: read-out: Control of weed species after post-emergence application, ECHCG
[5] = system: Ipomoea hederacea (IPOHE); settings: read-out: Control of weed species after post-emergence application, IPOHE
Setaria faberi (SETFA) = settings: read-out: Control of weed species after post-emergence application, SETFA
Lolium perenne (LOLPE) = settings: read-out: Control of weed species after post-emergence application, LOLPE
[6] = system: Amaranthus palmeri (AMAPA); settings: read-out: Control of weed species after post-emergence application, AMAPA
[7] = 500 g/Ha, 100=total damage to plant, 0=no damage, evaluated after 7 and 14 days

SMILES | pest or weed control at 500 g/ha [1, 7] | pest or weed control at 500 g/ha [2, 7] | pest or weed control at 500 g/ha [3] | pest or weed control at 500 g/ha (Eleusine indica (ELEIN); [7]) | pest or weed control at 500 g/ha [4, 7] | pest or weed control at 500 g/ha [5, 7] | pest or weed control at 500 g/ha (Setaria faberi (SETFA); [7]) | pest or weed control at 500 g/ha (Lolium perenne (LOLPE); [7]) | pest or weed control at 500 g/ha [6, 7] | pest or weed control at 500 g/ha [1] | pest or weed control at 500 g/ha [2] | pest or weed control at 500 g/ha (Eleusine indica (ELEIN)) | pest or weed control at 500 g/ha [4] | pest or weed control at 500 g/ha [5] | pest or weed control at 500 g/ha (Setaria faberi (SETFA)) | pest or weed control at 500 g/ha (Lolium perenne (LOLPE)) | pest or weed control at 500 g/ha [6]
O=C(O)C[n+]1ccc(-c2ncsn2)cc1 [Compound A83] | 20% | 30% | 50% | 10% | 0% | 10% | 10% | 10% | 20% | – | – | – | – | – | – | – | –
O=C(O)CC[n+]1ccc(-c2ncns2)cc1 [Compound A7, 3-[4-(1,2,4-thiadiazol-5-yl)pyridin-1-ium-1-yl]propanoic acid chloride] | 90% | 90% | 80% | 70% | 50% | 30% | 70% | 30% | 100% | – | – | – | – | – | – | – | –
O=C(O)CC[n+]1ccc(-c2ncns2)c(F)c1 [Compound A55] | – | 40% | 10% | – | – | 30% | 20% | 30% | 50% | – | – | – | – | – | – | – | –
O=S(=O)([O-])C[n+]1ccc(-c2nccs2)cc1 [Compound A84] | 10% | 60% | 50% | 50% | 30% | 10% | 10% | 10% | 70% | – | – | – | – | – | – | – | –
O=C(O)CC[n+]1ccc(-c2nc(O)ns2)cc1 [Compound A97, 3-[4-(3-hydroxy-1,2,4-thiadiazol-5-yl)pyridin-1-ium-1-yl]propanoic acid bromide] | 0% | 50% | 10% | 10% | 0% | 10% | 10% | 10% | 0% | – | – | – | – | – | – | – | –
O=C(O)C[n+]1ccc(-c2nc(C(F)(F)F)cs2)cc1 [Compound A22] | – | 10% | 40% | – | – | 0% | 0% | 0% | 10% | – | – | – | – | – | – | – | –
CS(=O)(=O)c1c[n+](CCC(=O)O)ccc1-c1ncns1 [Compound A93, 3-[3-methylsulfonyl-4-(1,2,4-thiadiazol-5-yl)pyridin-1-ium-1-yl]propanoic acid bromide] | – | 30% | 30% | 30% | 40% | 30% | 30% | 10% | 60% | – | – | – | – | – | – | – | –
COC(=O)C[n+]1ccc(-c2cnns2)cc1 [Compound A8, methyl 2-[4-(thiadiazol-5-yl)pyridin-1-ium-1-yl]acetate bromide] | 50% | 70% | 60% | 30% | 20% | 10% | 30% | 0% | – | – | – | – | – | – | – | – | –
CC(C(=O)O)[n+]1ccc(-c2ncns2)cc1 (stereo not drawn) [Compound A28] | – | 80% | 20% | – | – | 70% | 80% | 30% | 100% | – | – | – | – | – | – | – | –
O=C(O)CC[n+]1ccc(-c2ncns2)c(Cl)c1 [Compound A56] | – | 30% | 100% | – | – | 30% | 30% | 10% | 60% | – | – | – | – | – | – | – | –
O=C(O)C[n+]1ccc(-c2cnns2)cc1 [Compound A9, 2-[4-(thiadiazol-5-yl)pyridin-1-ium-1-yl]acetic acid chloride] | – | 0% | 10% | – | – | 20% | 0% | 0% | 30% | – | – | – | – | – | – | – | –
CNC(=O)c1cc(-c2cc[n+](CCCS(=O)(=O)[O-])cc2)on1 [Compound A52] | 20% | 30% | – | 10% | 10% | 10% | 10% | 10% | 20% | – | – | – | – | – | – | – | –
CC([n+]1ccc(-c2ncns2)cc1)S(=O)(=O)[O-] (stereo not drawn) [Compound A11] | 80% | 90% | – | 90% | 100% | 80% | 60% | 60% | 100% | – | – | – | – | – | – | – | –
COP(=O)([O-])C[n+]1ccc(-c2ncns2)cc1 [Compound A30, methoxy-[[4-(1,2,4-thiadiazol-5-yl)pyridin-1-ium-1-yl]methyl]phosphinate] | – | – | – | – | – | – | – | – | – | 90% | 70% | 90% | 90% | 50% | 90% | 30% | 90%
Cn1nnc(-c2cc[n+](CS(=O)(=O)[O-])cc2)n1 [Compound A35] | 20% | 60% | 50% | 20% | 40% | 40% | 30% | – | 70% | – | – | – | – | – | – | – | –
O=S(=O)([O-])CC[n+]1ccc(-c2ccno2)cc1 [Compound A41] | 10% | 0% | – | 0% | 10% | 0% | 10% | 0% | 10% | – | – | – | – | – | – | – | –
O=S(=O)([O-])CC[n+]1ccc(-c2nc(C(F)(F)F)ns2)cc1 [Compound A38] | 50% | 60% | – | 80% | 60% | 60% | 40% | 70% | 90% | – | – | – | – | – | – | – | –
Cc1nsc(-c2cc[n+](CS(=O)(=O)[O-])cc2)n1 [Compound A2, [4-(3-methyl-1,2,4-thiadiazol-5-yl)pyridin-1-ium-1-yl]methanesulfonate] | 90% | 90% | – | 80% | 60% | 70% | 70% | 60% | 100% | – | – | – | – | – | – | – | –

From patent US20220104493A1, “HERBICIDAL COMPOUNDS” (SYNGENTA CROP PROTECTION AG, priority 2019, published 2022)
